Results: article PMC4396983 (Bioorganic & medicinal chemistry, 2015)

Experiments:
human recombinant LSD1 [1] = target: T1, human recombinant LSD1 (Homo sapiens, UniProt O60341); assay: Recombinant LSD1 inhibition assay; type: biochemical; settings: 10 μM
human recombinant LSD1 [2] = target: T1, human recombinant LSD1; settings: previous studies ref 8; cited from earlier work

Row | SMILES | Effect on LSD1 activity (human recombinant LSD1 [1]) | Mode of inhibition (human recombinant LSD1 [2])
1 | CCNC(=O)NCCCNCCCCCCNCCCNC(=O)NCC.Cl.Cl [Compound 9a] | increase in the activity of LSD1 | –
2 | Cl.O=C(NCCCNCCCCCNCCCNC(=O)Nc1ccccc1)Nc1ccccc1 [Compound 7a, 1,13-bis-{3-[1-(phenyl)ureido]}-4,10-diazatridecane dihydrochloride] | increase in the activity of LSD1 | –
3 | Cl.Cl.O=C(NCCCNCCCCCCNCCCNC(=O)NCc1ccccc1)NCc1ccccc1 [Compound 9d] | increase in the activity of LSD1 | –
4 | Cl.N=C(NCCCNCCCCCCCNCCCNC(=N)NC(=N)NCCC(c1ccccc1)c1ccccc1)NC(=N)NCCC(c1ccccc1)c1ccccc1 [Compound 2, verlindamycin] | – | non-competitive inhibitor
5 | CCCNC(=O)NCCCNCCCCCCNCCCNC(=O)NCCC.Cl.Cl [Compound 9b] | increase in the activity of LSD1 | –
